Measured values reported in patent US11648239B2, “Azophenols as ERG oncogene inhibitors” (The Henry M. Jackson Foundation for the Advancement of …, priority 2015, dated 2023).

Tests used:
ERG protein [1] = target: T1, ERG protein (Homo sapiens, UniProt P11308); settings: PCT US2015/020172; cited from earlier work
T1 sequence (P11308 1-479): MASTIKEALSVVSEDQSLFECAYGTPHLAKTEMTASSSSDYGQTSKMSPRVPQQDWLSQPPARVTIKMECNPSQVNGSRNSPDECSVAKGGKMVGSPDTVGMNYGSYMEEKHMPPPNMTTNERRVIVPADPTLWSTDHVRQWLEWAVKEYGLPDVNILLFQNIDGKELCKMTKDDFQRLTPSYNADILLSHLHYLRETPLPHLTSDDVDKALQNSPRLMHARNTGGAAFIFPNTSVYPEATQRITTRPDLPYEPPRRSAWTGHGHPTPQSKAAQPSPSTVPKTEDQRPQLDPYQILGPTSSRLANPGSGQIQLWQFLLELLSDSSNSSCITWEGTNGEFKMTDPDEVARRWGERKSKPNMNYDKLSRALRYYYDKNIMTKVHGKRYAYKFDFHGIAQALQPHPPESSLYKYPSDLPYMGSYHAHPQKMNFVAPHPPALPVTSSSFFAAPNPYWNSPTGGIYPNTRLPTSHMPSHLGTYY

[2] = system: normal primary endothelial cells; settings: PCT US2015/020172; cited from earlier work
ERG protein [3] = target: T2, ERG protein (Homo sapiens, UniProt P11308); test: Inhibition of ERG protein in VCaP cells (Western blot); assay type: cell-based; settings: for IC50: metastatic prostate cancer, TMPRSS2-ERG fusion, N/D = assay performed, inhibition not detected at the tested levels
T2 construct: host or cells: VCaP
T2 sequence (P11308 33-479 limits assumed): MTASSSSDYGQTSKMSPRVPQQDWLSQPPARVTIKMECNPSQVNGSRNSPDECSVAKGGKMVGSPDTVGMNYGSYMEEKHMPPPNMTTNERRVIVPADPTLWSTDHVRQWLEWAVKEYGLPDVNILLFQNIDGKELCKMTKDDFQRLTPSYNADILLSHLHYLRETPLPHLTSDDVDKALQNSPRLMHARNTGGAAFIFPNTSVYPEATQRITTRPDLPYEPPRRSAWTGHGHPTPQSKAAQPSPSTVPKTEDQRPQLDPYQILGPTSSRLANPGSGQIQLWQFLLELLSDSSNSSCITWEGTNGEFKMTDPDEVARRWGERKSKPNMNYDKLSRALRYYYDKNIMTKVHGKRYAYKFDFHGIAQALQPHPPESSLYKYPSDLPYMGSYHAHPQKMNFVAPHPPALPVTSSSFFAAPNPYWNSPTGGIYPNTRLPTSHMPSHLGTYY
Experimental: The TMPRSS2-ERG fusion positive prostate cancer cell line, VCaP (ATCC), was used to identify the test compound inhibitors of ERG expression. Cells were grown in medium using conditions prescribed by the vendor. VCaP cells in logarithmic growth were seeded in a tissue culture dish at a cell density of 2×10^6 cells per plate. Following 48 hours incubation at 37° C., cells were exposed for a period of 48 hours with 0, 0.05, 0.25 and 0.5 μM concentrations of each test azophenol compound. The inhibition of ERG expression was evaluated by an In-cell Western blot assay (LI-COR Biosciences, Lincoln, Nebr.) using the ERG specific CPDR ERG-MAb as further described below.
(§1) Inhibition of ERG protein expression by the test compounds were determined by Western blot analysis. The ERG specific monoclonal antibody CPDR ERG-MAb was used as the primary antibody. In brief, Western blot was performed by running a fixed amount of total protein extracted from cell lysates of the treated cells using (4-12% Bis-Tris) gel by electrophoresis, followed by transfer to membrane and incubation with primary antibody and continued with HRP-conjugated secondary antibody. Cultured cells were treated at specific dosages with each of the tested ERG inhibitors. Following incubation of the treated cells for an indicated time period, cells were lysed using Mammalian Protein Extraction Reagent (M-PER; Pierce, Rockford, Ill.) containing a protease inhibitor cocktail and phosphatase inhibitor cocktails I & III (Sigma, St Louis, Mo.). Cell lysates containing 50 μg of total protein were electrophoresed through 4-12% Bis-Tris Gel (Invitrogen, Carlsbad, Calif.) and the cellular proteins were transferred to PVDF membrane (Invitrogen, Carlsbad, Calif.). Membranes were incubated at 4° C. for 12 hours with primary antibodies for AR, PSA, GAPDH, α-Tubulin, apoptosis markers and cell cycle regulators. Following exposure to primary antibodies, the membranes were washed with buffer (3×, 5 minutes each at room temperature) followed by incubation with relevant secondary antibodies for 1 hour at 24° C. Finally, the membranes were washed with buffer and developed using the ECL Western blot detection reagent (GE Health Care, Buckinghamshire, UK). The ERG protein expression of the test azophenol compounds were normalized with GAPDH.
In brief, ERG positive VCaP cells in loganthmic growth phase were plated in 10 cm tissue culture dish at a cell density of 2×10^6 cells per dish. The plated cells were treated with 0, 0.2, 0.4, 0.6, 0.8 and 1 μM concentrations of each azophenol compound for a period of 48 hours. Cells from each dish were then processed for Western blot analysis and alterations in the expression of ERG protein were monitored. Both ERG and GAPDH protein band were quantified from each concentration using Image J (NIH) and ERG band density was normalized with corresponding GAPDH protein control. Relative density of ERG in each concentration was calculated and with Graphpad Prism 6 software, the IC50 of each compound was calculated.

VCaP cells = test: VCaP cell growth inhibition; assay type: cell-based; settings: for IC50: metastatic prostate cancer, TMPRSS2-ERG fusion, N/D = assay performed, inhibition not detected at the tested levels
Experimental: (§2) Approximately 48 hours following plating of cells, the appropriate test compound is added to each well of the tissue culture dish at a predetermined concentration. The medium was replenished every 24 hours with fresh growth medium containing the same concentration of the same test compound for indicated period of the cell growth inhibition assay. Percent cell growth inhibition was calculated using a hemocytometer for estimating cell density in each of the test wells of the tissue culture dish and trypan blue dye exclusion microscopy and photography to estimate the fraction of viable cells in each test well.
To investigate whether the azophenol compounds selectively arrested the growth of ERG positive cancer cells (VCaP), VCaP cells were cultured to achieve cells in logarithmic growth and these cells were then plated in 6 well tissue culture dishes in duplicates at a cell density of 0.2×10^6 cells per well. The plated cells were exposed to 0, 0.2, 0.4, 0.6, 0.8 and 1 μM concentrations of each compound for a period of 8 days. At the end of time period, cells were recovered from the test plate, washed, trypsinized and the cell density of viable cells were determined with trypan blue dye staining method and automated cell counter Bio-Rad TC10. The IC50 of cell growth inhibition of each compound was determined by trypsinizing the cells at the end of the experiment and counting the cells by using the automated cell counter (Bio-Rad TC10 automated cell counter). The average cell numbers of each concentration were used to calculate the IC50 of each compound with the GraphPad Prism 6 software.

AR [4] = test: Inhibition of endogenous AR protein in VCaP cells (Western blot); assay type: cell-based; settings: 0.25 μM and 1 μM, FIG. 2
Experimental: as §1, with “Following exposure to primary antibodies, the membranes were washed with buffer (3×, 5 minutes each at room temperature) followed by incubation with relevant secondary antibodies for 1 hour at 24° C. Finally, the membranes were washed with buffer and developed using the ECL Western blot detection reagent (GE Health Care, Buckinghamshire, UK). The ERG protein expression of the test azophenol compounds were normalized with GAPDH.” left out

PSA [5] = test: Inhibition of endogenous PSA protein in VCaP cells (Western blot); assay type: cell-based; settings: 0.25 μM and 1 μM, FIG. 2
Experimental: as §1, with “Following exposure to primary antibodies, the membranes were washed with buffer (3×, 5 minutes each at room temperature) followed by incubation with relevant secondary antibodies for 1 hour at 24° C. Finally, the membranes were washed with buffer and developed using the ECL Western blot detection reagent (GE Health Care, Buckinghamshire, UK). The ERG protein expression of the test azophenol compounds were normalized with GAPDH.” left out

AR [6] = test: Inhibition of endogenous AR protein in LNCaP cells (Western blot); assay type: cell-based; settings: ERG negative LNCaP; 0.25 μM and 1 μM; FIG. 4
Experimental: (§3) To investigate whether the azophenol compounds of the invention are selective inhibitors of ERG protein expression, representative azophenol compounds were further tested for its ability to inhibit AR and PSA activity in the following AR positive/ERG negative prostate cancer cell lines: LNCaP (mutant AR positive and ERG negative), as well as in LAPC4 cells that are AR (wild type) positive and ERG negative.
(§4) Inhibition of ERG protein expression by the test compounds were determined by Western blot analysis. The ERG specific monoclonal antibody CPDR ERG-MAb was used as the primary antibody. In brief, Western blot was performed by running a fixed amount of total protein extracted from cell lysates of the treated cells using (4-12% Bis-Tris) gel by electrophoresis, followed by transfer to membrane and incubation with primary antibody and continued with HRP-conjugated secondary antibody. Cultured cells were treated at specific dosages with each of the tested ERG inhibitors. Following incubation of the treated cells for an indicated time period, cells were lysed using Mammalian Protein Extraction Reagent (M-PER; Pierce, Rockford, Ill.) containing a protease inhibitor cocktail and phosphatase inhibitor cocktails I & III (Sigma, St Louis, Mo.). […]

PSA [7] = test: Inhibition of endogenous PSA protein in LNCaP cells (Western blot); assay type: cell-based; settings: ERG negative LNCaP; 0.25 μM and 1 μM; FIG. 4
Experimental: as §3, §4

LNCaP cells = test: LNCaP cell growth; assay type: cell-based; settings: 0.25 μM and 1 μM, FIG. 5
Experimental: as §2

AR [8] = test: Inhibition of endogenous AR protein in LAPC-4 cells (Western blot); assay type: cell-based; settings: ERG negative LAPC-4; 0.25 μM and 1 μM; FIG. 6
Experimental: as §3, §4

LAPC-4 cells = test: LAPC-4 cell growth; assay type: cell-based; settings: 0.25 μM and 1 μM, FIG. 7
Experimental: as §2

RIOK2 protein [9] = target: T3, RIOK2 protein (Homo sapiens, UniProt Q9BVS4); test: Inhibition of endogenous RIOK2 protein in COLO320 cells (Western blot); assay type: cell-based; settings: 0.25 μM and 1 μM, FIG. 8
T3 sequence (Q9BVS4 whole entry): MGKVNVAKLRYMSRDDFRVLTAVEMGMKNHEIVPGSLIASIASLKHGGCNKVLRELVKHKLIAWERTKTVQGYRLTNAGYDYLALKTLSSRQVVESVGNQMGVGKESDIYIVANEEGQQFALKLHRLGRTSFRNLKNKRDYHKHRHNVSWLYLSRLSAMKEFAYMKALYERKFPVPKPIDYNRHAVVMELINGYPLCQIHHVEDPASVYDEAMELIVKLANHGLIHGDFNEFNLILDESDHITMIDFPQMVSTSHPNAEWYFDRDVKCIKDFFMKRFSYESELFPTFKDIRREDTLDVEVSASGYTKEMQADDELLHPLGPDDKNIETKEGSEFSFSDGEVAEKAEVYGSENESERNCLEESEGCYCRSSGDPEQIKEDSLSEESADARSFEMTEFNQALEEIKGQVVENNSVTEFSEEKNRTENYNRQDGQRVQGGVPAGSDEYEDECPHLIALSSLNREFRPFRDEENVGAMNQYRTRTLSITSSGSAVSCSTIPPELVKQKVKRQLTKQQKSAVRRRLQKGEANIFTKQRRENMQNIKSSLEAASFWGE

COLO320 cells = test: COLO320 cell growth; assay type: cell-based; settings: 0.25 μM and 1 μM, FIG. 9
Experimental: as §2

ERG protein [10] = target: T1, ERG protein; test: Inhibition of ERG protein in HUVEC normal endothelial cells (Western blot); assay type: cell-based; settings: 0.25 μM and 1 μM, FIG. 10
Experimental: as §1, with “Following exposure to primary antibodies, the membranes were washed with buffer (3×, 5 minutes each at room temperature) followed by incubation with relevant secondary antibodies for 1 hour at 24° C. Finally, the membranes were washed with buffer and developed using the ECL Western blot detection reagent (GE Health Care, Buckinghamshire, UK). The ERG protein expression of the test azophenol compounds were normalized with GAPDH.” left out

HUVEC = HUVEC cell growth; assay type: cell-based, human; settings: 0.25 μM and 1 μM, FIG. 11
Experimental: as §2

BPH-1 cells = test: BPH-1 cell growth; assay type: cell-based; settings: 0.25 μM and 1 μM, FIG. 12
Experimental: as §2

RWPE-1 cells = test: RWPE-1 cell growth; assay type: cell-based; settings: 0.25 μM and 1 μM, FIG. 12
Experimental: as §2

RIOK2 protein [11] = target: T3, RIOK2 protein; test: Inhibition of RIOK2 protein in VCaP cells (Western blot); assay type: cell-based; parameters: host or cells: VCaP; settings: 0.1, 0.2, 0.4, 0.6, 0.8 and 1 μM; FIG. 14, 17
ERG protein [12] = target: T1, ERG protein; test: Inhibition of endogenous ERG protein in COLO320 cells (Western blot); assay type: cell-based; parameters: host or cells: COLO320; settings: 0.25 μM and 1 μM, FIG. 8
Experimental: as §1, with “Following exposure to primary antibodies, the membranes were washed with buffer (3×, 5 minutes each at room temperature) followed by incubation with relevant secondary antibodies for 1 hour at 24° C. Finally, the membranes were washed with buffer and developed using the ECL Western blot detection reagent (GE Health Care, Buckinghamshire, UK). The ERG protein expression of the test azophenol compounds were normalized with GAPDH.” left out

RIOK2 protein [13] = target: T3, RIOK2 protein; test: Inhibition of RIOK2 protein in HUVEC normal endothelial cells (Western blot); assay type: cell-based; parameters: ERG and RIOK2 proteins in endogenous ERG expressing normal endothelial cells (HUVEC); host or cells: HUVEC; settings: 0.25 μM and 1 μM, FIG. 10

## Oc1ccc2ccccc2c1N=Nc1nccs1 [ERGi-USU]
ERG protein [1]
  inhibition of ERG protein in ERG positive cancer cell lines: inhibit the ERG protein
[2]
  effect on normal primary endothelial cells that endogenously express ERG: minimal effect

## Cc1cc(O)cc(O)c1N=Nc1nccs1 [Compound 4]
ERG protein [3]; VCaP
  IC50: 1860 nM
VCaP cells; 0.3, 0.6, 1.0, 3.0 and 10.0 μM, FIG. 25-30
  inhibition of VCaP cell growth: inhibition
VCaP cells; VCaP
  IC50: 1120 nM

## CC(C)c1ccc(O)c(N=Nc2nccs2)c1 [Compound 1]
ERG protein [3]; 0.1, 0.2, 0.4, 0.6, 0.8 and 1 μM, FIG. 13, 16
  inhibition of ERG protein in VCaP cells: inhibition
ERG protein [3]; VCaP, 0.25 μM and 1 μM, FIG. 2
  inhibition of endogenous ERG protein: inhibition
VCaP cells; 0.1, 0.2, 0.4, 0.6, 0.8 and 1 μM, FIG. 15, 18
  inhibition of VCaP cell growth: inhibition
VCaP cells; VCaP, 0.25 μM and 1 μM, FIG. 3
  inhibition of the growth of ERG harboring prostate cancer cells: inhibition
AR [4]
  inhibition of endogenous AR protein: inhibition
PSA [5]
  inhibition of endogenous PSA protein: inhibition
AR [6]
  inhibition of endogenous AR protein: lack of inhibition
PSA [7]
  inhibition of endogenous PSA protein: lack of inhibition
LNCaP cells
  growth of ERG negative prostate cancer cells: do not affect the growth
AR [8]
  inhibition of endogenous AR protein: do not inhibit
LAPC-4 cells
  growth of ERG negative prostate cancer cells: do not affect the growth
RIOK2 protein [9]
  inhibition of endogenous RIOK2 protein: inhibition
COLO320 cells
  inhibition of growth of ERG harboring colon cancer cells: inhibition
ERG protein [10]
  inhibition of ERG protein: lack of inhibition
HUVEC
  growth of ERG harboring normal endothelial cells: do not affect the growth
BPH-1 cells
  growth of ERG negative prostate-derived immortalized cells: do not affect the growth
RWPE-1 cells
  growth of ERG negative prostate-derived immortalized cells: do not affect the growth
RIOK2 protein [11]
  inhibition of RIOK2 protein in VCaP cells: inhibition
ERG protein [12]
  inhibition of endogenous ERG protein: inhibition
RIOK2 protein [13]
  inhibition of RIOK2 protein: lack of inhibition

## CN(C)c1ccc(N=Nc2ccc(Br)cn2)c(O)c1 [Compound 7]
ERG protein [3]; VCaP
  IC50: 559 nM
VCaP cells; 0.2, 0.4, 0.6, 0.8 and 1 μM, FIG. 19-22, 24
  inhibition of VCaP cell growth: inhibition
VCaP cells; VCaP
  IC50: 626 nM
